# ChEMBL document CHEMBL1201862, “PubChem BioAssay data set” (2004)
# Calls of active or inactive are those of the source.
# What was measured:
# [1] = biological target: T1, Histone-lysine N-methyltransferase NSD2 (Homo sapiens, UniProt O96028); type: biochemical
# T1 sequence (O96028 whole entry): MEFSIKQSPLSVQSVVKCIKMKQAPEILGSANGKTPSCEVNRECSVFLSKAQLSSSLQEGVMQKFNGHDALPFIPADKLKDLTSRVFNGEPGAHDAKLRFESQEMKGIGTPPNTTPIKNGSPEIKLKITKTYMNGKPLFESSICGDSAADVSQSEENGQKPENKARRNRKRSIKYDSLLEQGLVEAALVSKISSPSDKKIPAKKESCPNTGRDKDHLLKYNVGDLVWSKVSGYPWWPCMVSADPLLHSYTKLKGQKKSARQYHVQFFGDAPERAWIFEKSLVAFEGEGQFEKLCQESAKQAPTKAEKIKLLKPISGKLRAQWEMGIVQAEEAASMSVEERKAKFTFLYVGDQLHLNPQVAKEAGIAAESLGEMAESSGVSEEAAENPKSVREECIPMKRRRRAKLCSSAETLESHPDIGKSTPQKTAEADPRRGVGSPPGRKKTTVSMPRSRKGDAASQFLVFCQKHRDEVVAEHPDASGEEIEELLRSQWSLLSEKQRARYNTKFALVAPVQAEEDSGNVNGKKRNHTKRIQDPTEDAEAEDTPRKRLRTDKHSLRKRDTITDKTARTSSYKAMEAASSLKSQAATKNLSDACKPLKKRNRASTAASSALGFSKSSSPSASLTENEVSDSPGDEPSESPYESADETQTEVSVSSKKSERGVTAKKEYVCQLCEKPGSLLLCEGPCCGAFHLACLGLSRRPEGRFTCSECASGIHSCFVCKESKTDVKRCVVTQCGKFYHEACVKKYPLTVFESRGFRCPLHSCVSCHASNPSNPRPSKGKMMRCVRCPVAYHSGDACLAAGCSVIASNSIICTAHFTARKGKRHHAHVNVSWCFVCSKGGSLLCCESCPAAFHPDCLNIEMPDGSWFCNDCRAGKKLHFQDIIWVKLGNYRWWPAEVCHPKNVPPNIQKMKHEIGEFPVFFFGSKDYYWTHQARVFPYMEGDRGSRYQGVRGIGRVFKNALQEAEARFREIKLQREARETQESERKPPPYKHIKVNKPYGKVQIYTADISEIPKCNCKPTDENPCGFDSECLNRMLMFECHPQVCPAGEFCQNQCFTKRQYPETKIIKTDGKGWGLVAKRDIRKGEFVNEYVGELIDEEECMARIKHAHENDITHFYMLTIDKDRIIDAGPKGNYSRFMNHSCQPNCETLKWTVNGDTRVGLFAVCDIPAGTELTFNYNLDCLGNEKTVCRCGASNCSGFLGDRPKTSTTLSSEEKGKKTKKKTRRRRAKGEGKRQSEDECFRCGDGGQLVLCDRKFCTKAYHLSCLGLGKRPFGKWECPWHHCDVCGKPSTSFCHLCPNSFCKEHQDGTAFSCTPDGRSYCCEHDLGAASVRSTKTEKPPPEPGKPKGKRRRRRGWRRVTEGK
# Troponin, cardiac muscle = Troponin, cardiac muscle (Homo sapiens, UniProt P19429+P45379+P63316); test: inhibitors of cardiac thin filament calcium sensitivity, dose response, biochemical, fluorescence, cardiac regulated thin filaments, triplicate IC50 (AID 504742); type: protein-complex assay
# [2] = biological target: T2, Dual specificity protein phosphatase 6 (Rattus norvegicus, UniProt Q64346);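 further: in vitro confirmatory secondary MKP-3 assay designed to detect irreversible or slow-binding inhibitors; recombinant His-tagged rat MKP-3 acting on the substrate OMFP; inhibitor potency from reduced phosphatase rate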
# T2 sequence (Q64346 whole entry): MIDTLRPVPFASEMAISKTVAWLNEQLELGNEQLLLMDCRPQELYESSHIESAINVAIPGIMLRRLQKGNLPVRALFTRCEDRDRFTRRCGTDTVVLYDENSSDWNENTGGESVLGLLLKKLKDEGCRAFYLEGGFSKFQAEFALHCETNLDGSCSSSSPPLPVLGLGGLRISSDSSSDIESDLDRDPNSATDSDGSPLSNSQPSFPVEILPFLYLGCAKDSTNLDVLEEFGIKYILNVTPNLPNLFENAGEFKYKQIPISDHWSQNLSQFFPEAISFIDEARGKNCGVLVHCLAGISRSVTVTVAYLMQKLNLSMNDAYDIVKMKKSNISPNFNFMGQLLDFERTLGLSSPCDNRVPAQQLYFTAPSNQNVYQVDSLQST
# [3] = biological target: T3, Sentrin-specific protease 8 (Homo sapiens, UniProt Q96LD8); test: SENP8 protease inhibitors, SAR follow-up, biochemical, luminescence (AID 504501); type: functional
# T3 sequence (Q96LD8 whole entry): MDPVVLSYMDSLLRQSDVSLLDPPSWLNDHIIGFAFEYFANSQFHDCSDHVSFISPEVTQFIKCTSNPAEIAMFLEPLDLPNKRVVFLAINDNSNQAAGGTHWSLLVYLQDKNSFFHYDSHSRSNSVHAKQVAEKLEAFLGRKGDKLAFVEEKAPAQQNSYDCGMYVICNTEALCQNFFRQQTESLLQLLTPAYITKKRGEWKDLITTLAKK
# [4] = Luminescence Cell-Based Dose Retest to Confirm Inhibitors of Cancer Stem Cells. [Related pubchem assays (depositor defined):AID2717, AID2721]; type: functional, Homo sapiens; conditions: Homo sapiens
# [5] = biological target: Cyclin-dependent kinase 8 (Homo sapiens, UniProt P49336); test: Navigating the Kinome. Panel member name: CDK8; type: functional
# [6] = biological target: Mitogen-activated protein kinase 9 (Homo sapiens, UniProt P45984); type: functional;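 further: value from a kinome panel profiling assay, MAPK9 panel entry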
# [7] = biological target: Dual specificity tyrosine-phosphorylation-regulated kinase 3 (Homo sapiens, UniProt O43781); type: functional;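 further: measured as one member of a broad kinase panel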
# [8] = biological target: Eukaryotic elongation factor 2 kinase (Homo sapiens, UniProt O00418); type: functional
# [9] = biological target: Mitogen-activated protein kinase kinase kinase kinase 2 (Homo sapiens, UniProt Q12851); type: functional;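 further: measured as one member of a kinome-wide kinase panel, with MAP4K2 as the panel entry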
# [10] = biological target: MAP kinase-activated protein kinase 3 (Homo sapiens, UniProt Q16644); type: functional;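 further: value comes from a kinome-wide profiling panel in which MAPKAPK3 is one of the panel members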
# [11] = biological target: Fibroblast growth factor receptor 1 (Homo sapiens, UniProt P11362); type: functional
# Fibroblast growth factor receptor 1, sequence (P11362 whole entry): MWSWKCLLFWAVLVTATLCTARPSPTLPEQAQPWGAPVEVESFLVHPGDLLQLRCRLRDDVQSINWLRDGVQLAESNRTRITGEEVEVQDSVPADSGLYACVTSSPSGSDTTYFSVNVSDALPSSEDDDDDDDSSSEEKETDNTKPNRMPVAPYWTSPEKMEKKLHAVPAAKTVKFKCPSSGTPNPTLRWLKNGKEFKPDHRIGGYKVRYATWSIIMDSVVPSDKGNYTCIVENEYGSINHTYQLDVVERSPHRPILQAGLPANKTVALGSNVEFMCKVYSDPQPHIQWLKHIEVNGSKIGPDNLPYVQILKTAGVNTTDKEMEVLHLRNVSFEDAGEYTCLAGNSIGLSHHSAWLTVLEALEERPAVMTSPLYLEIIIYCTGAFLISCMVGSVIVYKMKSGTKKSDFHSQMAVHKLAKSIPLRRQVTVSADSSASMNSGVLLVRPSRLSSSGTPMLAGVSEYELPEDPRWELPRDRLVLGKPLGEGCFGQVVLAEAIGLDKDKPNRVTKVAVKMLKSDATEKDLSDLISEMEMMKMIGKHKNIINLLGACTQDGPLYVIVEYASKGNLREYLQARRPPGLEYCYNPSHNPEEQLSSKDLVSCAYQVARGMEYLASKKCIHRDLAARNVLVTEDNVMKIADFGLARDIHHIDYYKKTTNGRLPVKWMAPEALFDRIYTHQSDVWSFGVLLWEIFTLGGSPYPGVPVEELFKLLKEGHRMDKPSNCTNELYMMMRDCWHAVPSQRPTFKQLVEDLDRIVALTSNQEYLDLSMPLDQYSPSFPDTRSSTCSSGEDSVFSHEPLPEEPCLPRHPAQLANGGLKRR
# Cyclin-dependent kinase 8, sequence (P49336 whole entry): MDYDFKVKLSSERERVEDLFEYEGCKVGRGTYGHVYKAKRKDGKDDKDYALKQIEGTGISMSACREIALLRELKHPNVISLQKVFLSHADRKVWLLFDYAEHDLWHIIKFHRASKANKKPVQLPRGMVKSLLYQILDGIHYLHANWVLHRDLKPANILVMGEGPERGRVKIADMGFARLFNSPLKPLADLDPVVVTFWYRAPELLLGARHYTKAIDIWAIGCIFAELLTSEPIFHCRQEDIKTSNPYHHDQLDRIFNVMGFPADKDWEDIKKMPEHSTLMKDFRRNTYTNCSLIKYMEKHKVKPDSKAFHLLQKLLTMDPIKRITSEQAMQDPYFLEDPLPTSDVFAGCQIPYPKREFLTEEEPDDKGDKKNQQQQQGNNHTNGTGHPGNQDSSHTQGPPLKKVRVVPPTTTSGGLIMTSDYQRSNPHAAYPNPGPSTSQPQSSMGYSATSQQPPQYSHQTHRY
# Mitogen-activated protein kinase 9, sequence (P45984 whole entry): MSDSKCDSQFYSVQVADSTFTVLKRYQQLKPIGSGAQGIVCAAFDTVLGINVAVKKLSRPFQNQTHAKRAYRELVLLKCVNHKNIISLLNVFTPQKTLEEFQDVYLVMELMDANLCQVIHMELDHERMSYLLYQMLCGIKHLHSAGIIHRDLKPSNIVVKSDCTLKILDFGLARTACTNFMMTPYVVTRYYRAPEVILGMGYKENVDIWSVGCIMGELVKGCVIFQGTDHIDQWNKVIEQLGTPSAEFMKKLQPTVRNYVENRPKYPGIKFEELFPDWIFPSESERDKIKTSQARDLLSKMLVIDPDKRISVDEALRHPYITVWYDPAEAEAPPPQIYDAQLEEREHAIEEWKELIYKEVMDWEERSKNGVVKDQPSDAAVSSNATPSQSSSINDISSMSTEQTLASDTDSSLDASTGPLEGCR
# Eukaryotic elongation factor 2 kinase, sequence (O00418 whole entry): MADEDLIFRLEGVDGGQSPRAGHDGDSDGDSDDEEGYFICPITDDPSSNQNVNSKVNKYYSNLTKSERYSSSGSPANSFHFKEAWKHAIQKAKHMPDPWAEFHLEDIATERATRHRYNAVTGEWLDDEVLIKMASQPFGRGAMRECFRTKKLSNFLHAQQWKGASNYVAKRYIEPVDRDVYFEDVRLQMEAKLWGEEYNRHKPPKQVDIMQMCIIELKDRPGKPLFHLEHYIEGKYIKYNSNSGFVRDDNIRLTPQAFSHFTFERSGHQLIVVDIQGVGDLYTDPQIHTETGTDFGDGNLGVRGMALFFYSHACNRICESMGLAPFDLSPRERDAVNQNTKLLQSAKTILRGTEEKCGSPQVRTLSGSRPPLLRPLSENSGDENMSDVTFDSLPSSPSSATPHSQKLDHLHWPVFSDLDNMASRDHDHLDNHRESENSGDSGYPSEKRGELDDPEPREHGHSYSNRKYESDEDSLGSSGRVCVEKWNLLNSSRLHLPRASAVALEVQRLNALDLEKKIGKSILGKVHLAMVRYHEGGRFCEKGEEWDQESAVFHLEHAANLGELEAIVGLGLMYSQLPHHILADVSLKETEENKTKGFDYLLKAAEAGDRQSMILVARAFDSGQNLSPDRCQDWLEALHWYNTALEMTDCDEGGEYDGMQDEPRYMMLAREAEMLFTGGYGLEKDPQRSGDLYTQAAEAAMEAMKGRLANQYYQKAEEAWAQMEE
# Dual specificity tyrosine-phosphorylation-regulated kinase 3, sequence (O43781 whole entry): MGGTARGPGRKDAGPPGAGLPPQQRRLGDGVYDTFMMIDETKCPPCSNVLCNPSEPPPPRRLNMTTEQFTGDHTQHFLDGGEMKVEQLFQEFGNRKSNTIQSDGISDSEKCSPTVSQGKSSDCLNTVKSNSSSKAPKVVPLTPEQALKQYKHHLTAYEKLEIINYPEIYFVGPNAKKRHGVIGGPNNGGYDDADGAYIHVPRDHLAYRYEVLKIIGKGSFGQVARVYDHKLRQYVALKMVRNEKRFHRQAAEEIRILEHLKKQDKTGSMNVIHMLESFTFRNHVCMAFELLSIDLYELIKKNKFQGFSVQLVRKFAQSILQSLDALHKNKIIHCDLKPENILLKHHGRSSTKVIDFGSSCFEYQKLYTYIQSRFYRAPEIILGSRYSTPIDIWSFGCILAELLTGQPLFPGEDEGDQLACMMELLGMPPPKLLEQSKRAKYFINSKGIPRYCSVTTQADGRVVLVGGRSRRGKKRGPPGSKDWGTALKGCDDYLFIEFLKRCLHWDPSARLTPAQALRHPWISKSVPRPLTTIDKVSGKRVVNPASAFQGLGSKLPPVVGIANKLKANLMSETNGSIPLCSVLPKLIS
# MAP kinase-activated protein kinase 3, sequence (Q16644 whole entry): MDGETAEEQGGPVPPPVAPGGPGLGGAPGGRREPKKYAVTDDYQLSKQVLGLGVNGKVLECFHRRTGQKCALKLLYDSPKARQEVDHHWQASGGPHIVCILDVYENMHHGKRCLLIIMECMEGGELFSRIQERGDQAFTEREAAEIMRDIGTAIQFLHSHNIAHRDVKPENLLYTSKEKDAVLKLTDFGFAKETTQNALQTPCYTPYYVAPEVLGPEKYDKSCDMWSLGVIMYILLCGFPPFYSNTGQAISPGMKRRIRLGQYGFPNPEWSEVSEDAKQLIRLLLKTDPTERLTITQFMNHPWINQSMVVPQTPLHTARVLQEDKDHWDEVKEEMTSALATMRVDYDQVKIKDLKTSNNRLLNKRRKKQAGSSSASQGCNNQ
# Mitogen-activated protein kinase kinase kinase kinase 2, sequence (Q12851 whole entry): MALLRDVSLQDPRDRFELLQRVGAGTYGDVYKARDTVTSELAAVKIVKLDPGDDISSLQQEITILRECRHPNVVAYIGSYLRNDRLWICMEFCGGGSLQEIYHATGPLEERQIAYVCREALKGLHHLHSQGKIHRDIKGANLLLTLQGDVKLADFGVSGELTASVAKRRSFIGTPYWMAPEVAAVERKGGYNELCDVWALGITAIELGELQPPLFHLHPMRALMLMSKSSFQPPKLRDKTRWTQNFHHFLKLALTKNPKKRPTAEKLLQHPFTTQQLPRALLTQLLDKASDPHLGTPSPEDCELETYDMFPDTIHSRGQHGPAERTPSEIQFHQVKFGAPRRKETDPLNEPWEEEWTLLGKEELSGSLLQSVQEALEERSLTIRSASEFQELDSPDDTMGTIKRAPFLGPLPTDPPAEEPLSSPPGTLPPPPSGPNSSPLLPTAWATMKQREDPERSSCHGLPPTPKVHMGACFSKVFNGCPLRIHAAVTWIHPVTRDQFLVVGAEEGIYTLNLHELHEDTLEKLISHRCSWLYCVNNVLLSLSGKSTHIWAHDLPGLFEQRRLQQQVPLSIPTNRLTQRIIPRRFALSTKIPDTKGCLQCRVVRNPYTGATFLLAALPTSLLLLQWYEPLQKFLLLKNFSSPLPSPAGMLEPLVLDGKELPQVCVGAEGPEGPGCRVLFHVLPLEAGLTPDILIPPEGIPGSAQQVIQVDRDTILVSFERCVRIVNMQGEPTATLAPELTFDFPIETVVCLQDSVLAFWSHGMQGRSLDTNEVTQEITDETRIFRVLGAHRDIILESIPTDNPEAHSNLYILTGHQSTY
smiles,measurement,setting,value
O=C1C=C(N2CCCCC2)c2ccccc2C1=O,AC50,[1],1.11 µM (active)
O=C(O)C1Nc2c(O)cc(Cl)c([N+](=O)[O-])c2C2C=CCC12 (stereo not drawn),IC50,"Troponin, cardiac muscle",11 µM (inactive)
same,IC50,[2],36.8 µM (active)
O=C(CCc1ccccc1)NNc1cc(N2CCCCC2)nc(N2CCCCC2)n1,IC50,[3],> 99 µM (inactive)
Oc1ccc(N=Nc2c(O)ccc3ccccc23)cc1,AC50,[4],2.38 µM (active)
Cc1n[nH]c2ccc(-c3cncc(OCC(N)Cc4cccc(Cl)c4)c3)cc12 (stereo not drawn),Ki,[5],1.58 nM (active)
same,pKi,[5],8.8
same,Ki,[6],3.98 µM (active)
same,Ki,[7],5.01 nM (active)
same,Ki,[8],> 3.98 µM (inactive)
same,Ki,[9],63.1 nM (active)
same,Ki,[10],> 10 µM (inactive)
same,Ki,[11],5.01 µM (active)
